# Test results reported in patent US20150315218A1, “SALTS OF PRODRUGS OF PIPERAZINE AND SUBSTITUTED PIPERIDINE ANTIVIRAL AGENTS” (Bristol-Myers Squibb Company, priority 2004, published 2015).
# Counter-ions that a name gives are not always drawn. Like-named read-outs stand apart in the source and are kept apart here.
# Legend:
# rat hepatocytes = assay: Hydrolysis of prodrug in hepatocytes (rat); assay type: in vitro ADME
# Description: (§1) The in vitro intrinsic clearance of Ibb in hepatocytes (Clint) was calculated as follows: Clint(μL/min/million cells)=Rate/CE where Rate is the rate of metabolism in hepatocytes (pmol/min/million cells), and CE is the concentration of Ibb in the incubation. The in vitro intrinsic clearance of Icb in hepatocytes (Clint) was calculated as follows: Clint(μL/min/million cells)=Rate/CE where Rate is the rate of metabolism in hepatocytes (pmol/min/million cells), and CE is the concentration of Icb in the incubation.
# [1] = biological target: T1, human placental alkaline phosphatase (ALP) (Homo sapiens, UniProt P05187); assay: Hydrolysis of prodrug in human placental ALP solutions; assay type: in vitro ADME; conditions: human placental ALP solution, 37°C, 120 min, read-out: t1/2 (min) of prodrug disappearance
# T1 construct: To study the hydrolysis of lab in a purified form of human ALP, Iab was incubated in human placental ALP solutions; host or cells: human placenta (inferred from the name and from 'ALP derived from humans')
# Description: (§2) Solid human placental ALP was obtained from Sigma (P-3895, St. Louis, Mo.). […] Solutions of 100 and 10 units/L were obtained by serial dilution. Iab was incubated in the 10, 100 and 1000 units/L solutions (n=2) at 37° C. for 2 hr. The starting concentration of Iab in the incubation was 10 μM. Aliquots of 100 μL samples were taken at pre-determined times and added into K2EDTA microtainers followed by the addition of 200 μL of acetonitrile.
# as §2, with “Ibb” for “Iab”
# as §2, with “Icb” for “Iab”, “acetonitrile. The supernatant was analyzed for both Icb and IVe by LC/MS/MS.” for “acetonitrile.”
# in vitro [2] = conditions: monkey, serum
# Description: (§3) The stability of Iab was studied in fresh blood and serum from rat, dog, monkey and human (n=2). The blood was collected in vacutainers containing K2EDTA (Becton Dickinson, Franklin Lakes, N.J.). The serum was collected in vacutainers containing no anticoagulant. Iab was incubated at a starting concentration of approximately 10 μM for 60-90 min at 37° C. Serial samples were taken at the pre-determined times. Aliquots of blood samples (200 μL) were first mixed with 100 μL of water followed by 400 μL of acetonitrile. The serum samples (50 μL) were added into microtainers containing K2EDTA (Becton Dickinson, Franklin Lakes, N.J.) followed by the addition of 100 μL of acetonitrile. The supernatant was analyzed for both Iab and IVa by LC/MS/MS. The stability of Ibb was studied in fresh blood and serum from rat, dog, monkey and human (n=2). The blood was collected in vacutainers containing K2EDTA (Becton Dickinson, Franklin Lakes, N.J.). The serum was collected in vacutainers containing no anticoagulant. Ibb was incubated at a starting concentration of approximately 15 μM for 90 min at 37° C. Serial samples were taken at the pre-determined times. Aliquots of blood samples (200 μL) were first mixed with 100 μL of water followed by 400 μL of acetonitrile. The serum samples (50 μL) were added into microtainers containing K2EDTA (Becton Dickinson, Franklin Lakes, N.J.) followed by the addition of 100 μL of acetonitrile. […] The stability of Icb was studied in fresh blood and serum from rat, dog, monkey and human (n=2). The blood was collected in vacutainers containing K2EDTA (Becton Dickinson, Franklin Lakes, N.J.). The serum was collected in vacutainers containing no anticoagulant. Icb was incubated at a starting concentration of approximately 10 μM for 90 min at 37° C. Serial samples were taken at the pre-determined times. Aliquots of blood samples (200 μL) were first mixed with 100 μL of water followed by 400 μL of acetonitrile. The serum samples (50 μL) were added into microtainers containing K2EDTA (Becton Dickinson, Franklin Lakes, N.J.) followed by the addition of 100 μL of acetonitrile.
# human hepatocytes = assay: Hydrolysis of prodrug in hepatocytes (human); assay type: in vitro ADME
# Description: as §1
# in vitro [3] = conditions: rat, serum
# Description: as §3
# physchem = conditions: aqueous, aqueous buffer, thermodynamic from solid
# [4] = IV and oral rat PK (MAP) studies A, B, C of phosphate prodrugs and parent studies A1, B1, C1; assay type: in vivo, Sprague-Dawley rats; conditions: rats; for Cmax / Vd / half-life / concentration at 24 h / AUC(0-t) / Tmax: male, Sprague-Dawley, rat; for Vd: read-out: Vss i.v.; for concentration at 24 h: oral, read-out: Cp @ 24 hr p.o.; for AUC(0-t): AUC 0-24 h (μM * hr)
# Description: The rats for oral dosing studies were fasted overnight. […] The dosing solutions of all three prodrugs for both IV and oral administration were prepared in 100% normal saline at 1 mg/mL (dosing solution concentrations were parent compound equivalent). Plasma samples were collected in EDTA vacutainers over 24 hrs, and analyzed by LC/MS/MS for both the prodrugs and parent molecules. Pharmacokinetic analysis was performed on Kinetica™.
# Plasma and tissue samples were collected and stored at −20° C. until analysis. […] Rats were fasted overnight in PO studies. […] In the PO studies, rats (n=3) received PO doses of 5 and 100 mg/kg.
# Male Sprague-Dawley rats (300-350 g, Hilltop Lab Animals, Inc., Scottdale, Pa.) with cannulas implanted in the jugular vein and/or bile duct were used. The rats were fasted overnight in the PO pharmacokinetic studies. Blood samples of 0.3 ml were collected from the jugular vein in EDTA-containing microtainer tubes (Becton Dickinson, Franklin Lakes, N.J.), and centrifuged to separate plasma.
# [5] = Stability of prodrug in fresh EDTA blood (human); conditions: Human EDTA blood
# Description: as §3
# [6] = Stability of prodrug in fresh EDTA blood (rat); conditions: Rat EDTA blood
# Description: as §3
# [7] = Stability (hydrolysis) of prodrug in fresh serum (human); conditions: Human Serum
# [8] = Stability (hydrolysis) of prodrug in fresh serum (rat); conditions: Rat Serum
# Description: as §3
# [9] = Stability (hydrolysis) of prodrug in fresh serum (dog); conditions: Dog Serum
# Description: as §3
# [10] = plasma, 1 mg/kg, historic, parent IV 1 mpk
# [11] = plasma, iv, 1 mg/kg, after IV prodrug dosing equivalent to 1 mpk of parent, analyte = label, read-out: T1/2 i.v. (converted)
# [12] = plasma, iv, 1 mg/kg, historic, parent IV 1 mpk, read-out: T1/2 i.v. (converted)
# [13] = plasma, 5 mg/kg, after PO prodrug dosing equivalent to 5 mpk of parent, analyte = label
# [14] = plasma, 5 mg/kg, historic, after PO dosing of parent 5 mpk
# [15] = plasma, po, 5 mg/kg, after PO prodrug dosing equivalent to 5 mpk of parent, analyte = label
# [16] = plasma, po, 5 mg/kg, historic, after PO dosing of parent 5 mpk
# [17] = plasma, po, 5 mg/kg, after PO prodrug dosing equivalent to 5 mpk of parent
# [18] = plasma, po, 5 mg/kg, after PO prodrug dosing equivalent to 5 mpk of parent, read-out: T1/2 p.o. (converted)
# [19] = plasma, po, 5 mg/kg, historic, after PO dosing of parent 5 mpk, read-out: T1/2 p.o. (converted)
# [20] = parent AUC after prodrug dosing vs after parent dosing
# T1 sequence (P05187 23-506 limits assumed): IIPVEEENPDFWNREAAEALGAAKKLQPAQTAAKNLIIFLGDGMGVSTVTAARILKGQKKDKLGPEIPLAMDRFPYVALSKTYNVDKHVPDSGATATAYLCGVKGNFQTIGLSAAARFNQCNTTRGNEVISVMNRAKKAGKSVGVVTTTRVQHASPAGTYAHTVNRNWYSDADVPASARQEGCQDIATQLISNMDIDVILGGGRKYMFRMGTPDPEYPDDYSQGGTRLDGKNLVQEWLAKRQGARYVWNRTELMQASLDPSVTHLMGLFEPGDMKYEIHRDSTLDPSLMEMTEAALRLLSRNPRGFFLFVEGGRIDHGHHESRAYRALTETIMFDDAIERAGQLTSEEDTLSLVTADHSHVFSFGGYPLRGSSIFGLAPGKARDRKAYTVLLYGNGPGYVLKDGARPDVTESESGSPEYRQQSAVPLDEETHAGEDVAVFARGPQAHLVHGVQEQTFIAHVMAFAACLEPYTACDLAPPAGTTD
compound,measurement,setting,value
"COc1cnc(-n2cnc(C)n2)c2c1c(C(=O)C(=O)N1CCN(C(=O)c3ccccc3)CC1)cn2COP(=O)(O)O [Icb, [3-[(4-benzoylpiperazin-1-yl)(oxo)acetyl]-4-methoxy-7-(3-methyl-1H-1,2,4-triazol-1-yl)-1H-pyrrolo[2,3-c]pyridin-1-yl]methyl dihydrogen phosphate, 2-amino-2-(hydroxymethyl)propane-1,3-diol salt (1:1)]",hydrolysis in the presence of hepatocytes,rat hepatocytes,hydrolyzed
same,half-life at 10 μM,"[1]; pH 7.5, ALP Activity 10 Units/L",250 min
same,half-life at 10 μM,"[1]; pH 7.5, ALP Activity 100 Units/L",29 min
same,half-life at 10 μM,"[1]; pH 7.5, ALP Activity 1000 Units/L",2.4 min
same,half-life at 10 μM,in vitro [2],0.5 h
same,hydrolysis in the presence of hepatocytes,human hepatocytes,hydrolyzed
same,half-life at 10 μM,in vitro [3],0.7 h
O=C(C(=O)N1CCN(C(=O)c2ccccc2)CC1)c1c[nH]c2c(-n3ccnn3)ncc(F)c12 [IVb],solubility,physchem,7 to 190 µg/mL
same,Cmax,"[4]; in vivo, 5 mg/kg, historic, after PO dosing of parent 5 mpk",9500 ± 2800 nM
same,Vd,[4]; [10],0.49 ± 0.26 L/kg
same,half-life,[4]; [11],1.5 ± 0.2 h
same,half-life,[4]; [12],5.9 ± 4.9 h
same,concentration at 24 h,[4]; [13],7.5 nM
same,concentration at 24 h,[4]; [14],161 nM
same,AUC(0-t),[4]; [15],13.7 ± 2.6 µM·h
same,AUC(0-t),[4]; [16],86 ± 33 µM·h
same,Tmax,[4]; [17],1.1 h
same,Cmax,[4]; [15],3900 ± 800 nM
same,half-life,[4]; [18],2.4 ± 0.5 h
same,Tmax,[4]; [16],4.6 h
same,half-life,[4]; [19],3.7 ± 0.9 h
"COc1ncc(OC)c2c(C(=O)C(=O)N3CCN(C(=O)c4ccccc4)CC3)c[nH]c12 [IVa, N-(benzoyl)-N′-[(4,7-dimethoxy-6-azaindol-3-yl)-oxoacetyl]piperazine]",% IVa Formed (of starting concentration of Iab),[5]; 0 min,0.55%
same,Iab / IVa Formed,[5]; 0 min,0.061 µM
same,% IVa Formed (of starting concentration of Iab),[5]; 15 min,0.59%
same,Iab / IVa Formed,[5]; 15 min,0.067 µM
same,% IVa Formed (of starting concentration of Iab),[5]; 30 min,0.50%
same,Iab / IVa Formed,[5]; 30 min,0.057 µM
same,% IVa Formed (of starting concentration of Iab),[5]; 45 min,0.65%
same,Iab / IVa Formed,[5]; 45 min,0.073 µM
same,% IVa Formed (of starting concentration of Iab),[5]; 60 min,0.75%
same,Iab / IVa Formed,[5]; 60 min,0.084 µM
same,% IVa Formed (of starting concentration of Iab),[6]; 0 min,0.24%
same,Iab / IVa Formed,"[6]; 37°C, 0 min",0.019 µM
same,% IVa Formed (of starting concentration of Iab),[6]; 20 min,0.70%
same,Iab / IVa Formed,[6]; 20 min,0.056 µM
same,% IVa Formed (of starting concentration of Iab),[6]; 40 min,0.90%
same,Iab / IVa Formed,[6]; 40 min,0.072 µM
same,% IVa Formed (of starting concentration of Iab),[6]; 60 min,1.2%
same,Iab / IVa Formed,[6]; 60 min,0.093 µM
same,Iab / IVa Formed,"[7]; 37°C, 0 min",0.10 µM
same,Iab / IVa Formed,[7]; 15 min,0.10 µM
same,Iab / IVa Formed,[7]; 30 min,0.15 µM
same,Iab / IVa Formed,[7]; 45 min,0.20 µM
same,Iab / IVa Formed,[7]; 60 min,0.24 µM
same,Iab / IVa Formed,[7]; 90 min,0.32 µM
same,Iab / IVa Formed,"[8]; 37°C, 0 min",0.25 µM
same,Iab / IVa Formed,[8]; 15 min,1.1 µM
same,Iab / IVa Formed,[8]; 30 min,1.8 µM
same,Iab / IVa Formed,[8]; 45 min,2.8 µM
same,Iab / IVa Formed,[8]; 60 min,3.7 µM
same,Iab / IVa Formed,[8]; 90 min,5.4 µM
same,Iab / IVa Formed,"[9]; 37°C, 0 min",0.066 µM
same,Iab / IVa Formed,[9]; 15 min,0.85 µM
same,Iab / IVa Formed,[9]; 30 min,1.6 µM
same,Iab / IVa Formed,[9]; 45 min,2.5 µM
same,Iab / IVa Formed,[9]; 60 min,3.2 µM
same,Iab / IVa Formed,[9]; 90 min,4.4 µM
same,solubility,physchem,40 to 900 µg/mL
same,Vd,[4]; [10],1.4 ± 0.4 L/kg
same,half-life,[4]; [11],2.8 ± 1.5 h
same,half-life,[4]; [12],4 ± 2.6 h
same,concentration at 24 h,[4]; [13],35.2 nM
same,concentration at 24 h,[4]; [14],9.2 nM
same,AUC(0-t),[4]; [15],5.9 ± 1 µM·h
same,AUC(0-t),[4]; [16],14.9 ± 6.2 µM·h
same,Tmax,[4]; [17],1.7 h
same,Cmax,[4]; [15],1400 ± 600 nM
same,half-life,[4]; [18],3.3 ± 2.2 h
same,Cmax,[4]; [16],4500 ± 1500 nM
same,Tmax,[4]; [16],2 h
same,half-life,[4]; [19],1.9 ± 0.8 h
same,CL i.v.,"[4]; historic, parent IV 1 mpk",13 ± 4.6 mL/min/kg
same,AUC0 tot ratio after IV administration*,[4]; [20],0.534
same,AUCtot ratio after PO administration**,[4]; [20],0.39
COc1cnc(-n2cnc(C)n2)c2[nH]cc(C(=O)C(=O)N3CCN(C(=O)c4ccccc4)CC3)c12 [IVc],Vd,[4]; [10],0.4 ± 0.09 L/kg
same,concentration at 24 h,[4]; [13],84.3 nM
same,concentration at 24 h,[4]; [14],61 nM
same,AUC(0-t),[4]; [15],56 ± 7.5 µM·h
same,AUC(0-t),[4]; [16],110 ± 25 µM·h
same,Tmax,[4]; [17],0.8 ± 0.1 h
same,Cmax,[4]; [15],10200 ± 2100 nM
same,Cmax,[4]; [16],13400 ± 3600 nM
same,Tmax,[4]; [16],4 h
